The conditions of data set [1]: room temperature; cited from earlier work.
For data set [2], the system named is Desulfovibrio vulgaris (ATCC 29579). Nature of the data set: Activity against sulfate reducing bacteria (3-tube MPN). In kind it is cell-based. Conditions: 10ppm; one hour of contact time; starting 2x10^7 mpn/ml; SRB2 media.
Procedure: D. vulgaris was cultured for 2 days prior to experiment in SRB 2 media (Intertek). From this culture, 2 ml of inoculum was added to 18 ml anaerobic phosphate buffered saline (PBS).
Each concentration was tested in duplicate. […] The sealed bottles were incubated at room temperature (23°C) without agitation.
An initial sample was taken from the positive control to establish a starting concentration of bacteria for the experiment. 0.5 ml samples were taken at 1 hour time point and diluted in 4.5 ml anaerobic Dey/Engely (D/E) neutralizing broth to neutralize the Cu bacteriocide. A 1:10 dilution series was made using anaerobic PBS. Bacterial numbers were quantified by a 3-tube most probable number (MPN) method. Three tubes of anaerobic modified Baar's media (10 ml each) per dilution were inoculated with 1 ml each from their respective diluted sample. These tubes were incubated at 37°C for 72 hours. Positive samples were evaluated based on the presence of iron sulfide (FeS), which forms a black precipitate as a byproduct of hydrogen sulfide produced by bacterial growth reacting with iron included in the modified Baar's media.
All test media (PBS, D/E and modified Baar's media) were pretreated with 100 µl Oxyrase oxygen scavengers (obtained from Oxyrase Inc, Mansfield, OH) to render the test media anaerobic. […]

`[Cu][Br]` [CuBr, Copper bromide]: in data set [1], the “Water solubility” value is 11 µg/mL.

Consider `[Cl][Cu][Cl]` [CuCl2, copper (II) chloride], for which, in data set [2], the log10 reduction entry was “less than 3 log10”.

For the compound `O=CCCCC=O` [gluteraldehyde], the log10 reduction result in data set [2] is “greater than 4.23 log10”.
